How the values were obtained:
[1] = biological target: T1, WT full length PAICS (Homo sapiens, UniProt P22234); assay: Biochemical assay to measure PAICS activity (Transcreener ADP2 FI, SAICAR synthetase reaction); conditions: PAICS 2.5 nM, 30 mins pre-incubation, ADP detection by fluorescence intensity
T1 construct: 5 μl WT full length PAICS (final assay concentration, fac, 2.5 nM) in basic buffer
T1 sequence (P22234 1-425): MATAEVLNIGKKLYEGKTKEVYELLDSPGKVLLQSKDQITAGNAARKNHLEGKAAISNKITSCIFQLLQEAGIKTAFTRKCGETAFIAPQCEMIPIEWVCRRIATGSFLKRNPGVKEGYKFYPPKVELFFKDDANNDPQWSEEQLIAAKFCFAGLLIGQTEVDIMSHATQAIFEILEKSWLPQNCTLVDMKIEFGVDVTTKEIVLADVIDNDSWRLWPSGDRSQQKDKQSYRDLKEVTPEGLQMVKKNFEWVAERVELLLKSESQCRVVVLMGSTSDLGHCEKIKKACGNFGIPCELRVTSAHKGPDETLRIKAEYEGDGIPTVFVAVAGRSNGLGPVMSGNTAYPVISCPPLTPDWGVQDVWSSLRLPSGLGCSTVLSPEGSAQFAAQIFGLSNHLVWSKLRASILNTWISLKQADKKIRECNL
Source text: The biochemical assay was used to measure PAICS SAICAR synthetase-mediated conversion of CAIR, aspartic acid and ATP to SAICAR, ADP and inorganic phosphate (PI), post-AIR/CAIR equilibration (see FIG. 3). This was achieved by detecting the ADP generated during the reaction, using Bellbrook Lab's Transcreener ADP^2 FI assay. An increase in the fluorescence intensity is directly proportional to the amount of PAICS activity.
The Transcreener ADP^2 FI assay is a homogeneous competitive displacement fluorescence intensity assay which uses direct immunodetection of ADP. Displacement of the tracer by ADP causes an increase in the fluorescence at excitation 590 nm and emission 617 nm (FIG. 3).
5 μl WT full length PAICS (final assay concentration, fac, 2.5 nM) in basic buffer, added to black, non-binding, 384-well plates (Corning #3575), columns 1 to 22.5 μl basic buffer was added to columns 23+24 (negative control). PAICS stock at 31.9 μM from the PI's lab (Steve Firestine). Basic buffer contained 50 mM Tris-HCl pH8 and 0.5 mM EDTA, fac.
1 μl compound in 100% DMSO added per well, or 1 μl 100% DMSO to positive controls (columns 1+2) and negative controls (columns 23+24). Final assay top concentration of compound either 1 mM or 30 μM, serially diluted with half-log dilutions across the plate in duplicate (one 10-point concentration response curve across wells 3 to 12, another across 13 to 22). Compounds pre-incubated with PAICS enzyme for 30 mins at RT.
2 μl CAIR added (fac 10 μM) in basic buffer plus 25 mM MgCl2 and 50 mM KHCO3 fac to all wells. CAIR stock 50 mM from Steve Firestine's lab. 1 hr RT incubation for AIR-CAIR equilibration. NB: ˜50% CAIR is decarboxylated during equilibration therefore 5 μM remains for the synthetase reaction.
2 μl ATP/aspartic acid added (fac 30 μM/180 μM) in reaction buffer to all wells. 30 mins RT incubation for appropriate level of ATP turnover. Reaction buffer contained basic buffer plus 10 mM DTT, 0.01% BSA and 0.01% Brij 35, fac.
10 μl ADP detection reagent added to all wells (as per instructions, Transcreener ADP^2 FI kit, BellBrook Labs #3013-10K). Incubation for 1 h at RT to allow antibody equilibration. Fluorescence intensity determined using a Tecan Safire2 (excitation at 590 nm, emission at 617 nm).

[2] = system: LM2 and MDA-MB-231 breast cancer cell lines; assay: PAICS 2D cell proliferation assay; format: cell-based; conditions: Homo sapiens; 72 hours incubation; cell line (LM2 or MDA-MB-231) not given
Description: Frozen cryovial stocks of LM2 and MDA-MB-231 breast cancer cell lines were thawed and cultured in 4.5 g/L glucose DMEM (31966-047, Invitrogen) supplemented with 10% Fetal Bovine Serum (10500-064, Invitrogen) until confluent in a T175 flask. Cells were incubated at 37° C. with 5% CO2 in a humidified incubator.
Cells were collected from T175 flasks by washing with PBS (10010-056, Invitrogen) and dissociated using Accutase (A6964, Sigma Aldrich). This was followed by centrifuging (1200 rpm, 5 min) and resuspending the cells in 10 ml of media containing 1% penicillin/streptomycin (15140-122, Invitrogen). Cells were counted by trypan blue exclusion method using an automated cell counter (Cellometer) and diluted to a concentration of 40,000/ml. 1000 cells were then seeded into 384-well white-walled plates (Corning, 3707) in a volume of 25 μl. Plates were incubated overnight at 37° C. with 5% CO2.
After 24 hours, PAICS compounds were added onto the assay plates using an HP D300 Digital Dispenser (Hewlett Packard). 10 mM stocks were used and dispensed as a 10 point concentration response curve (CRC) ½ log dilution series with a final top concentration of 100 μM. Controls were added onto each plate: positive controls included Staurosporine CRC (100 μM stock dispensed as a 10 point CRC ½ log dilution series with a final top concentration of 1 μM) and PAICS compound MRT00211919 (10 mM stock dispensed as a 10 point CRC ½ log dilution series with a final top concentration of 100 μM); a high control of Staurosporine (0.1 μM (LM2), 0.316 μM (MDA-MB-231) FAC) and a low control of media containing 1% DMSO. A final concentration of 1% DMSO was then added across the plates for normalisation. Following compound addition, assay plates were incubated for 72 hours at 37° C. with 5% CO2.
After 72 h incubation, dead and viable cells were measured in each assay plate. Cytotoxicity was assessed through fluorescent DNA staining using the CellTox™ Green Cytotoxicity Assay kit (G8743, Promega) following the manufacturer's multiplexing protocol. Impaired cell membrane integrity results in the access of dye to stain DNA allowing quantification of dead cells. Cell viability was determined following ATP quantification using the CellTiter-Glo® Luminescent Cell Viability Assay kit (G7572, Promega) following the manufacturer's protocol. ATP released from lysed cells allowed for the generation of a signal proportional to the number of cells present in the well. All endpoint reads were performed using the PheraSTAR Plus (BMG Labtech). Data is expressed as % viable cells and % dead cells against controls (mean±SEM of duplicate curves).

| IC50 [1] | EC50 [2] | Compound |
| --- | --- | --- |
| 0.01 to 0.025 µM | 0.1 to 0.25 µM | N#Cc1nn(C2CCNCC2)cc1-c1ccc(Cl)c(NC(=O)c2coc(N)n2)c1 [Example 53, 2-Amino-N-(2-chloro-5-(3-cyano-1-(piperidin-4-yl)-1H-pyrazol-4-yl)phenyl)oxazole-4-carboxamide] |
| 0.01 to 0.025 µM | 0.25 to 0.5 µM | Nc1nc(C(=O)Nc2cc(-c3ccn(C4CCNCC4)n3)ccc2Cl)co1 [Example 54, 2-amino-N-{2-chloro-5-[1-(piperidin-4-yl)-1H-pyrazol-3-yl]phenyl}-1,3-oxazole-4-carboxamide] |
| 0.01 to 0.025 µM | 0.1 to 0.25 µM | Cc1nn(C2CCNCC2)cc1-c1ccc(Cl)c(NC(=O)c2coc(N)n2)c1 [Example 55, 2-Amino-N-(2-chloro-5-(3-methyl-1-(piperidin-4-yl)-1H-pyrazol-4-yl)phenyl)oxazole-4-carboxamide] |
| 0.01 to 0.025 µM | 0.1 to 0.25 µM | CCNCCn1cc(-c2ccc(Cl)c(NC(=O)c3coc(N)n3)c2)cn1 [Example 56, 2-Amino-N-(2-chloro-5-(1-(2-(ethylamino)ethyl)-1H-pyrazol-4-yl)phenyl)oxazole-4-carboxamide] |
| 0.025 to 0.1 µM | 0.25 to 0.5 µM | CN1CCN(CCn2cc(-c3ccc(Cl)c(NC(=O)c4coc(N)n4)c3)cn2)CC1 [Example 57, 2-Amino-N-(2-chloro-5-(1-(2-(4-methylpiperazin-1-yl)ethyl)-1H-pyrazol-4-yl)phenyl)oxazole-4-carboxamide] |
| 0.025 to 0.1 µM | 0.25 to 0.5 µM | CN(C)CCNC(=O)Cn1cc(-c2ccc(Cl)c(NC(=O)c3coc(N)n3)c2)cn1 [Example 58, 2-Amino-N-{2-chloro-5-[1-(2-{[2-(dimethylamino)ethyl]amino}-2-oxoethyl)-1H-pyrazol-4-yl]phenyl}-1,3-oxazole-4-carboxamide] |
| 0.025 to 0.1 µM | 0.25 to 0.5 µM | CN(C)C1CCN(C(=O)Cn2cc(-c3ccc(Cl)c(NC(=O)c4coc(N)n4)c3)cn2)CC1 [Example 59, 2-Amino-N-[2-chloro-5-(1-{2-[4-(dimethylamino)piperidin-1-yl]-2-oxoethyl}-1H-pyrazol-4-yl)phenyl]-1,3-oxazole-4-carboxamide] |
| > 0.1 µM | 0.25 to 0.5 µM | CC1CN(C(=O)Cn2cc(-c3ccc(Cl)c(NC(=O)c4coc(N)n4)c3)cn2)CCN1 (centres unmarked) [Example 60, 2-Amino-N-(2-chloro-5-{1-[2-(3-methylpiperazin-1-yl)-2-oxoethyl]-1H-pyrazol-4-yl}phenyl)-1,3-oxazole-4-carboxamide] |
| 0.025 to 0.1 µM | 0.25 to 0.5 µM | CN1CCC(NC(=O)Cn2cc(-c3ccc(Cl)c(NC(=O)c4coc(N)n4)c3)cn2)CC1 [Example 61, 2-Amino-N-[2-chloro-5-(1-{2-[(1-methylpiperidin-4-yl)amino]-2-oxoethyl}-1H-pyrazol-4-yl)phenyl]-1,3-oxazole-4-carboxamide] |
| > 0.1 µM | 0.1 to 0.25 µM | CN(C)CC(=O)N1CCC(n2cc(-c3ccc(Cl)c(NC(=O)c4coc(N)n4)c3)cn2)CC1 [Example 62, 2-Amino-N-(2-chloro-5-{1-[1-(N,N-dimethylglycyl)piperidin-4-yl]-1H-pyrazol-4-yl}phenyl)-1,3-oxazole-4-carboxamide] |
| > 0.1 µM | 0.25 to 0.5 µM | CN(C)CCC(=O)N1CCC(n2cc(-c3ccc(Cl)c(NC(=O)c4coc(N)n4)c3)cn2)CC1 [Example 63, 2-Amino-N-(2-chloro-5-{1-[1-(N,N-dimethyl-beta-alanyl)piperidin-4-yl]-1H-pyrazol-4-yl}phenyl)-1,3-oxazole-4-carboxamide] |
| > 0.1 µM | 0.25 to 0.5 µM | CN(C)CCCC(=O)N1CCC(n2cc(-c3ccc(Cl)c(NC(=O)c4coc(N)n4)c3)cn2)CC1 [Example 64, 2-Amino-N-[2-chloro-5-(1-{1-[4-(dimethylamino)butanoyl]piperidin-4-yl}-1H-pyrazol-4-yl)phenyl]-1,3-oxazole-4-carboxamide] |
| 0.025 to 0.1 µM | 0.25 to 0.5 µM | CN(C)CCC(=O)N1CC(Cn2cc(-c3ccc(Cl)c(NC(=O)c4coc(N)n4)c3)cn2)C1 [Example 65, 2-Amino-N-[2-chloro-5-{1-([1-(N,N-dimethyl-beta-alanyl)azetidin-3-yl]methyl}-1H-pyrazol-4-yl)phenyl]-1,3-oxazole-4-carboxamide] |
| > 0.1 µM | 0.1 to 0.25 µM | Nc1nc(C(=O)Nc2cc(-c3cnn(C4CCN(CCO)CC4)c3)ccc2Cl)co1 [Example 66, 2-Amino-N-(2-chloro-5-{1-[1-(2-hydroxyethyl)piperidin-4-yl]-1H-pyrazol-4-yl}phenyl)-1,3-oxazole-4-carboxamide] |
| 0.01 to 0.025 µM | 0.25 to 0.5 µM | Nc1nc(C(=O)Nc2cc(-c3ccc(OC4CCNC4)nc3)ccc2Cl)co1 (centres unmarked) [Example 68, 2-Amino-N-(2-chloro-5-(6-(pyrrolidin-3-yloxy)pyridin-3-yl)phenyl)oxazole-4-carboxamide] |
| 0.01 to 0.025 µM | 0.25 to 0.5 µM | Nc1nc(C(=O)Nc2cc(-c3ccc(OCC4CCCNC4)nc3)ccc2Cl)co1 (centres unmarked) [Example 69, 2-Amino-N-(2-chloro-5-(6-(piperidin-3-ylmethoxy)pyridin-3-yl)phenyl)oxazole-4-carboxamide] |
| 0.01 to 0.025 µM | 0.1 to 0.25 µM | CNCCCOc1ccc(-c2ccc(Cl)c(NC(=O)c3coc(N)n3)c2)cn1 [Example 70, 2-Amino-N-(2-chloro-5-(6-(3-(methylamino)propoxy)pyridin-3-yl)phenyl)oxazole-4-carboxamide] |
| 0.01 to 0.025 µM | 0.1 to 0.25 µM | CC(C)NCCCOc1ccc(-c2ccc(Cl)c(NC(=O)c3coc(N)n3)c2)cn1 [Example 71, 2-Amino-N-(2-chloro-5-(6-(3-(isopropylamino)propoxy)pyridin-3-yl)phenyl)oxazole-4-carboxamide] |
| 0.01 to 0.025 µM | 0.1 to 0.25 µM | CN(C)CCCOc1ccc(-c2ccc(Cl)c(NC(=O)c3coc(N)n3)c2)cn1 [Example 72, 2-Amino-N-(2-chloro-5-{6-[3-(dimethylamino)propoxy]pyridin-3-yl}phenyl)-1,3-oxazole-4-carboxamide] |
